For one experiment, the system named is H1975 cells. Kind of experiment: Inhibition of cancer cell growth, MTT assay, H1975. To be noted: Homo sapiens, NCI-H1975, 72 h, read-out: IC50 in H1975 cells.
For another experiment, the system named is A431 cells. Kind of experiment: cells. The note with it: Homo sapiens, A-431, 72 h, read-out: IC50 in A431 cells.
The target of the next experiment is EGFR (ErbB1) T790M L858R (Homo sapiens (Human), UniProt P00533, L858R/T790M). Kind of experiment: Z'-LYTE kinase inhibition assay, EGFR L858R/T790M. It is filed as biochemical. The note with it: for inhibition at 0.0137 µM: read-out: % inhibition against EGFR L858R/T790M (Compound at 0.0137 μM); for IC50: read-out: IC50 against EGFR L858R/T790M. The method, boiled down:
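Z'-LYTE FRET peptide assay at 1% DMSO, 10-point 3-fold titrations; kinase/peptide mix in 50 mM HEPES pH 6.5, 0.01% BRIJ-35, 10 mM MgCl2, 1 mM EGTA, 0.02% NaN3. Kinase reaction ran 60 min at room temperature, followed by 60 min development and a fluorescence read. IC50 derived from the concentration series.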

Another experiment addresses EGFR (ErbB1) (Homo sapiens (Human), UniProt P00533). Kind of experiment: Z'-LYTE kinase inhibition assay, EGFR. Format: biochemical. The note with it: read-out: % inhibition against EGFR (Compound at 0.041 μM). The procedure, abridged: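 Z'-LYTE FRET assay run with 1.1-5.25 ng EGFR and 2 μM peptide substrate in 50 mM HEPES pH 7.5, 10 mM MgCl2, 2 mM MnCl2, 1 mM EGTA, 1 mM DTT, 0.01% BRIJ-35, 1% DMSO. Kinase reaction 60 min at room temperature, then 60 min development; IC50 from 10-point 3-fold titrations.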

For another experiment, the system named is H3255 cells. Kind of experiment: Inhibition of cancer cell growth, MTT assay, H3255. The note with it: Homo sapiens, NCI-H3255, 72 h, read-out: IC50 in H3255 cells. (In general: Tetrazolium assays rely on reduction of a dye to a coloured formazan, in cell work by metabolically active cells.)

EGFR (ErbB1), sequence (P00533 25-1210): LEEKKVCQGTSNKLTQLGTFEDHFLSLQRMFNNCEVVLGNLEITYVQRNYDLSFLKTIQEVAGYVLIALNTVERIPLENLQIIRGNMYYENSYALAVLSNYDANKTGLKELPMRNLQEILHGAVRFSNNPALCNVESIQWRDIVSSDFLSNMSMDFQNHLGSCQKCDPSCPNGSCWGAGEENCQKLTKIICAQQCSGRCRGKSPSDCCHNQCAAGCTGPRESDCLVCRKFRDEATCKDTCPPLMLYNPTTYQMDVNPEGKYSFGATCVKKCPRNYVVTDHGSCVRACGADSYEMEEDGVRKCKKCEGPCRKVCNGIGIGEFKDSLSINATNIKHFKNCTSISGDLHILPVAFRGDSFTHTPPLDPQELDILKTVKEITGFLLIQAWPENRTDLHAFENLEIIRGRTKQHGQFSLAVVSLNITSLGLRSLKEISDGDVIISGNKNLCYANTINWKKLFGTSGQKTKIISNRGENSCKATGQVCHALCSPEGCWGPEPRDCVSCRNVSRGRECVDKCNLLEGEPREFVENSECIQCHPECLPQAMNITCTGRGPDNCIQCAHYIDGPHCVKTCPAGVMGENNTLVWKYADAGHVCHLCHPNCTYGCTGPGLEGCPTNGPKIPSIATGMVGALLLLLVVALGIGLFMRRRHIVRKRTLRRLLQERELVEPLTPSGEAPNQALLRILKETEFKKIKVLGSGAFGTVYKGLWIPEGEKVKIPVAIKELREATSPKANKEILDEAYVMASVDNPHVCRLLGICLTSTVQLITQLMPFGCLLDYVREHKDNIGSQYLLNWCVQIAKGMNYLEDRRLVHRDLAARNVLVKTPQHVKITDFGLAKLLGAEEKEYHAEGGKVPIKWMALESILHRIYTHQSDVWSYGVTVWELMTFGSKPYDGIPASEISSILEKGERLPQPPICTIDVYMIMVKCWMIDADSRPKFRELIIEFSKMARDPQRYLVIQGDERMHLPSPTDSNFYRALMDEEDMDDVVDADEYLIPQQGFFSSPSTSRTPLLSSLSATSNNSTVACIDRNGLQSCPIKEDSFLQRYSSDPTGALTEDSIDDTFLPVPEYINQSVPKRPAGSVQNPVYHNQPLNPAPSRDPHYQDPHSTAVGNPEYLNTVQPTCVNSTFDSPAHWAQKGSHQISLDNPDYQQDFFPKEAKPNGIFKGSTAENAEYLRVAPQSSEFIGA
EGFR (ErbB1) T790M L858R, sequence (P00533 25-1210 T790M/L858R): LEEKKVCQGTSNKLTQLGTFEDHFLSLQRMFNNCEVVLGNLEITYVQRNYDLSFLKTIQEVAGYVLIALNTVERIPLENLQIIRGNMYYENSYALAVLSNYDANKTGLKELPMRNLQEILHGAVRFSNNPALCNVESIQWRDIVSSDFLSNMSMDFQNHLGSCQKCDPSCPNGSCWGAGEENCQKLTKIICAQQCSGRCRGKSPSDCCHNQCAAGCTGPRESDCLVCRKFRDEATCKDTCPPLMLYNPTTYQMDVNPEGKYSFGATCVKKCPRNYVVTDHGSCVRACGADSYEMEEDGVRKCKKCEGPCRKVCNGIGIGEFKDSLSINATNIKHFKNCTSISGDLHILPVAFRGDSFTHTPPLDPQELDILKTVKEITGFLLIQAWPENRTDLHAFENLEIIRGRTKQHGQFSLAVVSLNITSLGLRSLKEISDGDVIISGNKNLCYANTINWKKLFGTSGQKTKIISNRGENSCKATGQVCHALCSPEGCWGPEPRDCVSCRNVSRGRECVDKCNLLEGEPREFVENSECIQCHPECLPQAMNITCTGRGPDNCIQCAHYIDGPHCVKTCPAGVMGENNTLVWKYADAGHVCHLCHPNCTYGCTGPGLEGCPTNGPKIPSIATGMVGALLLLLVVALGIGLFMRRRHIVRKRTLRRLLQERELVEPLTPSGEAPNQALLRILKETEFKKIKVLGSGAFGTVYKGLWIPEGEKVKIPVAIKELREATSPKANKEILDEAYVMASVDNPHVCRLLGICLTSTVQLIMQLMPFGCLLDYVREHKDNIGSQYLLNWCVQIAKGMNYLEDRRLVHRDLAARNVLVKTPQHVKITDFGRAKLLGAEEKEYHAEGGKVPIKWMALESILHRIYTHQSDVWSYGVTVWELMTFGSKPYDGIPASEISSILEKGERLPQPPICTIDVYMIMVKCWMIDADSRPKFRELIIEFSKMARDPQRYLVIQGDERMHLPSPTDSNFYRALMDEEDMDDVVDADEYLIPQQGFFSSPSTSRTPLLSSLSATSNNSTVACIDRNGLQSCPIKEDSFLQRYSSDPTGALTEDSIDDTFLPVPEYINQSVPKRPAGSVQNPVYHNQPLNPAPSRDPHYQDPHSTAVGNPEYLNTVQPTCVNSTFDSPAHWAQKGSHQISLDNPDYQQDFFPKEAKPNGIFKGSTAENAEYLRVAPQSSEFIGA
Method for A431 cells: Taxol (as a positive control. Sigma) and compounds were dissolved in DMSO (Sigma), and the final concentration of DMSO in the medium was 1%. Tumor cells were plated in 96-well plates at densities of about 4000 cells/well of a 96-well plate and allowed to adhere/grow for 24 h. They were then treated with various concentrations of drug for 72 h, 3-(4,5-Dimethylthiazol-2-yl)-2,5-diphenyltetrazolium bromide (MTT, Sigma) was used to determine the number of viable cells at the time of compound addition and the number of cells remaining after 72 h compound exposure. The number of cells remaining after 72 h was compared to the number of viable cells at the time of compound addition by measuring the absorbance at 570 nm, allowing for the calculation of growth inhibition.
(§1) All concentrations of compounds were tested in triplicate and controls were averaged over 4 wells. IC50 was calculated by plotting the concentration of compound vs the percentage of inhibition in treated wells using GraphPad Prism 5.
The scale utilized in Tables 5 is as follows: +++ less than 100 nM; ++ between 100 nM and 500 nM; and + greater than 500 nM.
Method for H1975 cells: (§2) Inhibition of cell growth by compounds was measured using MTT assay (Mosmann, T., Journal of Immunological Methods, 1983, 65, 55-63). Tumor cell lines were purchased from ATCC (American Type Culture Collection, Manassas, Va.). All cell lines were maintained in RPMI 1640 (Hyclone) supplemented with 10% fetal bovine serum (FBS, Hyclone), glutamine (2 mM, Hyclone), and antibiotics (penicillin 100 U/mL and streptomycin 50 μg/mL) at 37° C. in a humidified atmosphere of 5% CO2 in air. Taxol (as a positive control. Sigma) and compounds were dissolved in DMSO (Sigma), and the final concentration of DMSO in the medium was 1%. Tumor cells were plated in 96-well plates at densities of about 4000 cells/well of a 96-well plate and allowed to adhere/grow for 24 h. They were then treated with various concentrations of drug for 72 h, 3-(4,5-Dimethylthiazol-2-yl)-2,5-diphenyltetrazolium bromide (MTT, Sigma) was used to determine the number of viable cells at the time of compound addition and the number of cells remaining after 72 h compound exposure. The number of cells remaining after 72 h was compared to the number of viable cells at the time of compound addition by measuring the absorbance at 570 nm, allowing for the calculation of growth inhibition.
as §1
Method for H3255 cells: as §2, §1

Turning to `C=CC(=O)Nc1cccc(-c2cccc3cnc(Nc4ccc(N[C@H]5CCN(C)C5)cc4)nc23)c1` [Example C127, (S)-N-(3-(2-((4-((1-methylpyrrolidin-3-yl)amino)phenyl)amino)quinazolin-8-yl)phenyl)acrylamide], the IC50 in the experiment with H1975 cells was under 100 nM; in the experiment with A431 cells, under 100 nM; at EGFR (ErbB1) T790M L858R, under 100 nM; in the experiment on H3255 cells it was 100 to 500 nM. For the same compound, the inhibition at 0.0137 µM on EGFR (ErbB1) T790M L858R is over 50%. For the same compound, the inhibition at 0.041 µM at EGFR (ErbB1) is over 50%.
In the case of `C=CC(=O)Nc1cccc(-c2cccc3cnc(Nc4ccc(OC5CCN(CCO)CC5)cc4)nc23)c1` [Example C137, N-(3-(2-((4-((1-(2-hydroxyethyl)piperidin-4-yl)oxy)phenyl)amino)quinazolin-8-yl)phenyl)acrylamide], the IC50 was under 100 nM in the experiment with H1975 cells, 100 to 500 nM with A431 cells, under 100 nM at EGFR (ErbB1) T790M L858R and over 500 nM in the experiment on H3255 cells. The inhibition at 0.0137 µM at EGFR (ErbB1) T790M L858R was over 50%. The inhibition at 0.041 µM on EGFR (ErbB1) was over 50%.
For `C=CC(=O)Nc1cccc(-c2cccc3cnc(Nc4ccc(NC5CCN(CCO)CC5)cc4)nc23)c1` [Example C139, N-(3-(2-((4-((1-(2-hydroxyethyl)piperidin-4-yl)amino)phenyl)amino)quinazolin-8-yl)phenyl)acrylamide], the IC50 was under 100 nM with H1975 cells, under 100 nM in the experiment with A431 cells, under 100 nM at EGFR (ErbB1) T790M L858R and 100 to 500 nM in the experiment on H3255 cells. On EGFR (ErbB1) T790M L858R, the inhibition at 0.0137 µM was over 50%. Further, the inhibition at 0.041 µM on EGFR (ErbB1) is over 50%.
Regarding `C=CC(=O)Nc1cccc(-c2cccc3cnc(Nc4ccc(NC5CCN(C)CC5)cc4F)nc23)c1` [Example C140, N-(3-(2-((2-fluoro-4-((1-methylpiperidin-4-yl)amino)phenyl)amino)quinazolin-8-yl)phenyl)acrylamide], the IC50 is under 100 nM with H1975 cells, over 500 nM in the experiment with A431 cells, under 100 nM on EGFR (ErbB1) T790M L858R and over 500 nM in the experiment on H3255 cells. Further, the inhibition at 0.0137 µM on EGFR (ErbB1) T790M L858R is over 50%. The inhibition at 0.041 µM at EGFR (ErbB1) is over 50%.
Consider `C=CC(=O)Nc1cccc(-c2cccc3cnc(Nc4ccc(N5CCN(CCOC)CC5)cc4)nc23)c1` [Example C152, N-(3-(2-((4-(4-(2-methoxyethyl)piperazin-1-yl)phenyl)amino)quinazolin-8-yl)phenyl)acrylamide], for which the results for the IC50 in the experiment with H1975 cells, in the experiment on A431 cells and in the experiment with H3255 cells were under 100 nM, 100 to 500 nM and 100 to 500 nM, respectively. On EGFR (ErbB1) T790M L858R, the inhibition at 0.0137 µM is over 50%. The inhibition at 0.041 µM at EGFR (ErbB1) is under 50%.
As for `C=CC(=O)Nc1cccc(-c2cccc3cnc(Nc4cc(F)c(N5CCN(CCOC)CC5)cc4F)nc23)c1` [Example C161, N-(3-(2-((2,5-difluoro-4-(4-(2-methoxyethyl)piperazin-1-yl)phenyl)amino)quinazolin-8-yl)phenyl)acrylamide], the IC50 in the experiment on H1975 cells is 100 to 500 nM; in the experiment on H3255 cells, over 500 nM. The inhibition at 0.0137 µM on EGFR (ErbB1) T790M L858R was under 50%.
For the compound `C=CC(=O)Nc1cccc(-c2cccc3cnc(Nc4cc(F)c(N5CCN(CCO)CC5)cc4F)nc23)c1` [Example C162, N-(3-(2-((2,5-difluoro-4-(4-(2-hydroxyethyl)piperazin-1-yl)phenyl)amino)quinazolin-8-yl)phenyl)acrylamide], the IC50 with H1975 cells was 100 to 500 nM; in the experiment with H3255 cells, over 500 nM.

For the origin of these results see patent US10172868B2, “Substituted quinazolines for inhibiting kinase activity” (NeuPharma, Inc., priority 2013, dated 2019).
